Results on one molecule are retold here after US4386103A, “Dichloroamino acid derivatives useful as potent germicidal and fungicidal agents” (Merck & Co., Inc., priority 1981, dated 1983).

In one series the test system is Aspergillus fumigatus. Nature of the series: Contact fungicidal screen, Aspergillus fumigatus. In kind it is cell-based. To be noted: 0.1M NaOAc pH 4.6. The procedure:
The organisms used in the Contact Fungicidal Screen are a dermatophyte, trychophyton mentagrophytes, frequently associated with athlete's foot; a yeast, Candida albican, causative agent of thrush and vaginitis; a phycomycete, Rhizopus oryzae, commonly known as black bread mold; an ascomycete, Aspergillus fumagatis, found in chicken droppings and causing lung infections; and another dermatophyte, Microsporum canis, which causes ringworm. These organisms are maintained as stock cultures at 4° C. on agar […] of the following composition: dextrose 2%, Neopeptone (Difco) 1%, agar 2%. Fluid medium of the same nutrient composition (without agar) was used to test the viability of the organisms after exposure to the fungicide. This medium is also known as Sabouraud's medium. Sabouraud's agar plate cultures of Aspergillus fumigatus, Microsporum canis, and a different culture of Trychophyton mentagrophytes are prepared by planting an inoculum at the center of an agar plate and incubating at 25°-30° C. for seven to ten days. The mycelial mats are removed from the surface of the agar and prepared in the same manner as the Rhizopus culture. The compounds are weighed into heat sterilized 100 ml volumetric flasks and immediately before screening dissolved in 0.1 M NaOAc pH 4.6 buffer (test solutions). The Aspergillus, Candida, Microsporum and Rhizopus species are screened in a slightly different manner. Basically, the procedure for the Contact Germicidal Efficiency Screen is utilized. After the test solutions are made up, 5 ml aliquots are pipetted into heat sterilized 25 ml glass stoppered erlenmeyer flasks. The screen is initiated when 0.5 ml of the 5×10^6 cell (spore) per ml suspension is added to the flask containing 5 ml of the test solution. […] The subculture tubes are incubated at 25°-30° C. for ten days with daily observation for mycelial growth. The earliest subculture time at which no growth is present is considered the endpoint and is recorded as the sterilization time. To insure the viability of the culture, a 0.5 ml aliquot of the 5×10^6 cells (spores) per ml suspension is transferred to 5 ml of the pH 4.6 buffer. A loopful of the inoculated buffer is then subcultured to 7 ml of fluid Sabouraud's medium and incubated at 25°-30° C. for ten days. To insure that the dilution of the test solution into the subculture medium does stop the action, a loopful of the test solution and a loopful of the inoculated buffer are transferred into the same subculture tube. This tube is also incubated at 25°-30° C. for ten days.

The next series deals with Pseudamonas aeruginosa. Nature of the series: Contact germicidal screen, Pseudamonas aeruginosa ATCC No. 14502. In kind it is cell-based. Here is the method:
The organisms used in the contact germicidal screen are all maintained as stock cultures on nutrient agar […] 4° C. They are transferred and biochemically diagnosed monthly. The five organisms used are: The media used are: […] Overnight cultures of the test organisms are grown in tryptose phosphate broth. After 15-16 hours, the cultures are centrifuged at […] for 15 minutes, and the supernatant replaced with fresh warm (37° C.) media. After two hours of incubation, the absorbance of the culture at 650 nm is determined and diluted with nutrient broth to 1×10^7 colony forming units per ml (using a previous determined standard curve: colony forming units/ml vs. absorbance at 650). The diluted cultures are maintained at 4°-8° C. throughout the screen. The compounds are weighed into sterile 100 ml volumetric flasks, and immediately before screening dissolved in one of the following buffers: 0.1 M NaOAc pH 4.6 or 0.1 M NaH2 PO4 pH 7.0. If solubility poses a problem, 10-30% methanol is used to effect solution. Two denaturing agents are also tested: […] Horse Serum restored with 100 ml distilled water and 10% Trition×100. When used, 2.5 ml of the denaturing agent is mixed with 2.5 ml of double strength test solution thirty minutes before the bacterial suspension is added. The screen is initiated when 0.2 ml of the bacterial suspension is added to 5.0 ml of the test solution contained in a sterile 25 ml glass stoppered flask. At intervals of 0.5, 2.5, 5.0, 10.0 and 15.0 minutes, a loopful of the inoculated test solution is subcultured into 5 ml of sterile nutrient broth and mixed with a vortex, the high dilution serving to stop the action of the compound. All of the subculture tubes are incubated at 37° C. and checked for signs of growth by turbidity at 1, 3, 5 and 7 days. The earliest subculture time at which no growth is present is considered the endpoint and is recorded as the sterilization time. An aliquot of 0.2 ml of the diluted culture is transferred to 5 ml of buffer to simulate 0.2 ml in 5 ml of test solution. (a) Purity: A loopful of the inoculated buffer is streaked onto nutrient agar to check colony morphology and lack of contaminants. (b) Viability: A loopful of the inoculated buffer is subcultured to 5 ml of nutrient broth as in the screen and incubated at 37° C. for 24 hours. (c) Dilution of the Test Solution: A loopful of the test solution is transferred to a 5 ml tube of nutrient broth, and a loopful of the inoculated buffer is transferred to the same tube of broth. […] (d) Purity of Organisms in the Test Solution: After the 15 minute subculture, a loopful of the inoculated test solution is streaked onto nutrient agar to insure that contamination has not occurred during the screen. (e) lack of Bactericidal Activity of Buffers and Other Solvents: Before a buffer or other solvent is used as a diluent, it is screened against the five organisms to insure that the buffer or solvent has no antibacterial activity itself.

The nature of series [1]: Stability in Triacetin (preliminary formulation studies). In kind it is physicochemical. As to conditions: 60° C., two months. From the text: Triacetin is the triacetate of glycerin; it is a viscous liquid with high water solubility and very low toxicity. […] Of course other aprotic polar solvents can be used as well.

Turning to `CC(C)(COC(=O)CCC(=O)O)N(Cl)Cl` [(IV), 2-Dichloroamino-2-methylpropylhemisuccinate], the “Sterilization Time” value stood at 15 min in the series on Aspergillus fumigatus (10 PPM); 15 min with Aspergillus fumigatus (100 PPM); 15 min with Aspergillus fumigatus (1000 PPM); 10.0 min in the series on Pseudamonas aeruginosa (8.6 PPM, 0.1M NaOAc pH 4.6); 15 min in the series on Pseudamonas aeruginosa (9.8 PPM, 0.1M NaH2PO4 pH 7.0); 5.0 min in the series on Pseudamonas aeruginosa (10.0+ PPM, 0.1M NaOAc pH 4.6, screened simultaneously with four other compounds). Also, the “Sterilization Time” value with Pseudamonas aeruginosa (106.2 PPM, 0.1M NaOAc pH 4.6) came out at 2.5 min; in the series with Pseudamonas aeruginosa (149.7 PPM, 0.1M NaH2PO4 pH 7.0), 15 min; in the series with Pseudamonas aeruginosa (308.0 PPM, Triton X100 (10% solution):pH 4.6 buffer 1:1) it was 2.5 min; with Pseudamonas aeruginosa (338.7 PPM, horse serum:pH 4.6 buffer 1:1), 15 min; with Pseudamonas aeruginosa (1008.0 PPM, 0.1M NaOAc pH 4.6), 0.5 min; in the series on Pseudamonas aeruginosa (1024.0 PPM, horse serum:pH 4.6 buffer 1:1), 10.0 min. The “Sterilization Time” value in the series with Pseudamonas aeruginosa (1070.3 PPM, 0.1M NaH2PO4 pH 7.0) was 15 min. Moreover, the “Sterilization Time (summary)” value is 5.0 min in the series on Pseudamonas aeruginosa (10 PPM, 0.1M NaOAc pH 4.6); 2.5 min in the series with Pseudamonas aeruginosa (100 PPM, 0.1M NaOAc pH 4.6); 15 min in the series on Pseudamonas aeruginosa (300 PPM with 50% Horse Serum, 0.1M NaOAc pH 4.6); 2.5 min with Pseudamonas aeruginosa (300 PPM with 50% Triton X100, 0.1M NaOAc pH 4.6); 10.0 min in the series on Pseudamonas aeruginosa (1000 PPM with 50% Horse Serum, 0.1M NaOAc pH 4.6); 0.5 min with Pseudamonas aeruginosa (1000 PPM, 0.1M NaOAc pH 4.6). Further, the “decomposition in esters of polyalcohols such as Triacetin” value in series [1] was “no decomposition”.
